This is an account of results in patent publication US7947262B2, “Use of fullerenes for the treatment of mast cell and basophil-mediated disease” (Virginia Commonwealth University, priority 2006, dated 2011).

One series concerns IgE-DNP-sensitized mice. The series can be described thus: IgE-induced systemic anaphylaxis in vivo. Conditions: intravenously (50 ng/ml) overnight before DNP-BSA challenge; FIG. 6. Here is the method:
FIG. 6. […] Mice (3-5 per group; n=2 separate experiments) were sensitized with or without (Δ) DNP-IgE overnight. The mice were then given vehicle alone (▪) or fullerenes (▾=Poly C60; ●=N-ethyl C60) intravenously (50 ng/ml) overnight. The next morning the animals were challenged with DNP-BSA (100 μg/ml) and the core body temperature measured for up to 30 minutes. Serum histamine levels were measured by ELISA. A, data represented with line graphs; B, data represented with bar graphs.
Systemic anaphylaxis is predominately driven by the activation of MC and PBB through IgE-FceRI crosslinking (45;61). […] Thus, we hypothesized that they could inhibit MC and PBB-induced anaphylaxis in vivo using IgE-sensitized mice. […] In addition, there was a significant reduction in serum histamine levels with the fullerene preincubation.
To test inhibition of mouse anaphylaxis, mice are injected intraperitoneally (IP) with 50 μg of DNP-specific IgE. After approximately 4 to 6 hours the mice (triplicate) are injected with or without different concentrations of fullerenes. The next day cells are injected IP with DNP-HSA (100 μg, Sigma-Aldrich). […] After 30 minutes, mice are sacrificed, and cardiac puncture is used to obtain plasma, from which histamine and other mediators are measured by ELISA. […]

The subject of series [1] is PBB. As to the kind of experiment: Cellular ROS levels after antigen challenge (DCF dye, FACS). In kind it is cell-based, human. Conditions: preincubation, then NIP-BSA 100 ng/ml for 30 min; FIG. 5. Here is the method:
(§1) Skin MC (grey) or PBB (white) were sensitized overnight with anti-NIP-IgE (1 μg/ml). Cells were activated for 30 min with NIP-BSA (100 ng/ml) with or without preincubation with the indicated concentrations of fullerenes or N-acetyl-L-cysteine (NAC; 10 μmol). Cellular ROS levels were detected by incubating the cells in the ROS indicating dye 5-(and-6)-carboxy-2′,7′-dichlorodihydrofluorescein diacetate (DCF) followed by FACS analysis. The results are representative of 3 separate MC or PBB cultures. The * or # indicates statistically significant changes in ROS levels for MC and PBB, respectively (p<0.05). A, polyhydroxy C60 fullerenes; B, N-ethyl-polyamine C60 fullerenes.
(§2) To investigate the mechanism by which these fullerenes inhibit allergic mediator release from skin MC and PBB, the effect these compounds have on ROS levels within the cell after antigen stimulation was tested.

The test system of series [2] is skin MC. Described as above. Type of series: cell-based, human. Conditions: preincubation, then NIP-BSA 100 ng/ml for 30 min; FIG. 5. As for the experimental part:
as §1, §2

The subject of series [3] is skin MC. As to the kind of experiment: Cellular localization by immunohistochemistry with anti-C60 fullerene Ab. In kind it is cell-based, human. The conditions noted are these: 4 hours incubation; Polyhydroxy C60 10 ng/ml, N-ethyl-polyamino C60 0.1 μg/ml; FIG. 4. Here is the method:
Skin MC (a-d) or PBB (e, f) were incubated with Polyhydroxy C60 (10 ng/ml; a, b, c, f) or N-ethyl-polyamino C60 (0.1 μg/ml; d, f) for 4 hours, washed and cytocentrifuged onto slides. The cytocentrifuge preparations were incubated with anti-C60 fullerene Abs (c, d, e, f) or with an isotype-matched control (a, b) overnight. The cytospins were washed and incubated with a 1:50 dilution of peroxidase-conjugated, anti-mouse Abs and developed with AEC as described. Photographs a and b are the same field taken under phase-contrast (a) or light (b) at a magification of 400×. Pictures c-f were taken under light at a magification of 1000×.
To access the cellular localization if the fullerenes within human MC, these cells were incubated with the water soluble fullerenes and immunohistochemistry was assessed using a fullerene-specific antibody Ab (59;60).

In series [4] the test system is PBB.
Experimental: (§3) A bar graph illustrating the effects of fullerenes on skin MC and PBB viability Cells were cultured with (poly; white bars, N-ethyl; striped bars) or without (black bars) fullerenes (10 mg/ml) for the indicated times. Cells were washed and viability assessed by trypan blue exclusion. Results are representative of 3 experiments from different donors.
(§4) The effects of water soluble fullerene derivatives (Poly; polyhydroxy C60 and N-ethyl; N-ethyl-polyamino C60) on cell growth and viability were tested. Cells were incubated for up to 72 hours and total cell numbers were assessed along with trypan blue exclusion.
For series [5], the system named is skin MC.
Experimental: as §3, §4

With N-ethyl-polyamino C60, in the series with IgE-DNP-sensitized mice, the IgE-induced anaphylaxis result is reported as “inhibit IgE-induced anaphylaxis”. Further, the “cellular ROS levels” value with PBB [1] and with skin MC [2] was “inhibit ROS production” each time. Besides, in the series on skin MC [3], the “cellular localization of fullerenes” value is reported as “localize within the cytoplasm of MC”. Moreover, the total cell numbers result in the series on PBB [4] and in the series on skin MC [5] was “None of the fullerenes demonstrated a significant affect” each time.
Turning to polyhydroxy C60, the IgE-induced anaphylaxis entry in the series on IgE-DNP-sensitized mice is reported as “inhibit IgE-induced anaphylaxis”. Also, the “cellular ROS levels” value in the series on PBB [1] and in the series with skin MC [2] was “inhibit ROS production” throughout. In addition, in the series with skin MC [3], the “cellular localization of fullerenes” value was “localize within the cytoplasm of MC”. The total cell numbers entry in the series on PBB [4] and in the series on skin MC [5] was “None of the fullerenes demonstrated a significant affect” throughout.
